Data taken from patent publication US20260274867A1, “PYRIDO[4,3-D]PYRIMIDINE DERIVATIVES AS MUTANT KRAS G12C INHIBITORS FOR THE TREATMENT OF CANCER” (Frontier Medicines Corporation, priority 2023, published 2026).

The molecules below were run against T1, KRAS G12C (GMPPNP-loaded, Cys-light, amino acids 1-169) and cRAF Ras-binding domain interaction (Homo sapiens, UniProt P01116, C118S/C51S/C80L/G12C) (assay: Inhibition of KRAS G12C and cRAF binding (AlphaScreen)). Details: KRAS G12C preloaded with GMPPNP, 2 hours compound incubation, room temperature.
T1 construct: truncated version comprising amino acids 1-169
Protocol: The AlphaScreen technology was used to determine IC50s for compound inhibition of KRAS G12C (present as the Cys-light (C51S, C80L and C118S), truncated version comprising amino acids 1-169) and cRAF interaction. Compounds were diluted in 100% DMSO and each compound concentration was spotted at 200 nl/well onto low volume, white 384 well plates. The KRAS G12C contained a biotin-AviTag and the cRaf, as Ras-binding domain (amino acids 50-131, RBD), was GST-tagged. KRAS G12C was preloaded with the GTP analogue Guanosine 5′-[…] (GMPPNP). The KRAS G12C was diluted in 25 mM Hepes, pH 7.4, 150 mM NaCl, 5 mM MgCl2, 0.01% TritonX-100 and 10 μM GMPPNP and added at 10 ul/well to compound-spotted plates resulting in a DMSO concentration of 2%. Plates were incubated for 2 hours. A mixture of RBD and the AlphaScreen streptavidin donor and glutathione acceptor beads diluted in 25 mM Hepes, pH 7.4, 150 mM NaCl, 5 mM MgCl2, 0.01% TritonX-100 and 2% DMSO was then added at 10 ul/well and incubated for 60-90 minutes before the samples were read for emission at 570 nm after excitation of the donor beads at 680 nm. All incubations were performed at room temperature. The final top compound concentration was 50 μM with 1:3 titrations for 10-point dose response curves. Final assay conditions were 0.5 nM KRAS G12C, 0.75 nM RBD and 5 μg/ml each of AlphaScreen donor and acceptor beads. IC50s were determined using nonlinear regression fit of [inhibitor] vs. response (4 parameters).
A counter assay was also set up to rule out inhibitors of the AlphaScreen technology itself. Compound plates were incubated for 2 hours as above with buffer only. The AlphaScreen beads were added as above except biotin-AviTag-GST was substituted for the RBD. Samples were read and analyzed as above.

T1 sequence (P01116 1-169 isoform P01116-2 G12C/C51S/C80L/C118S): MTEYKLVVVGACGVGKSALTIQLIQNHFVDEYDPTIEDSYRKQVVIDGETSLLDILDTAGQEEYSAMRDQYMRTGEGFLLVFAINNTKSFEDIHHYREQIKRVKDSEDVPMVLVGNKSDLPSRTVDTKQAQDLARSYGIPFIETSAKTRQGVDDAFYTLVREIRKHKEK

Structure (SMILES)	IC50
COC(=O)/C=C(\F)C(=O)N1CCC(N(C)c2nc(OCC34CCCN3CCC4)nc3c2CCN(c2cccc4cccc(Cl)c24)C3)C1 (centres unmarked) [Compound 1]	10 to 100 nM
Cc1nccc(/C=C(\F)C(=O)N2CCN(c3nc(OCC45CCCN4CCC5)nc4c(F)c(-c5cccc6cccc(Cl)c56)ncc34)C[C@@H]2CC#N)n1 [Compound 2]	< 10 nM
Cc1nsc(/C=C(\F)C(=O)N2CCN(c3nc(OCC45CCCN4CCC5)nc4c3CCN(c3cccc5ccc(F)c(Cl)c35)C4)C[C@@H]2CC#N)n1 [Compound 3]	< 10 nM
CC(C)c1noc(/C=C(\F)C(=O)N2CCN(c3nc(OCC45CCCN4CCC5)nc4c(F)c(-c5cccc6cccc(Cl)c56)ncc34)C[C@@H]2CC#N)n1 [Compound 4]	< 10 nM
Cc1nccc(/C=C(\F)C(=O)N2CCN(c3nc(OC[C@@]45CCCN4C[C@H](F)C5)nc4c(F)c(-c5cccc6ccc(F)c(Cl)c56)ncc34)C[C@@H]2CC#N)n1 [Compound 5, 2-((S)-4-(7-(8-chloro-7-fluoronaphthalen-1-yl)-8-fluoro-2-(((2R,7aS)-2-fluorotetrahydro-1H-pyrrolizin-7a(5H)-yl)methoxy)pyrido[4,3-d]pyrimidin-4-yl)-1-((Z)-2-fluoro-3-(2-methylpyrimidin-4-yl)acryloyl)piperazin-2-yl)acetonitrile]	< 10 nM
N#CC[C@H]1CN(c2nc(OC[C@@]34CCCN3C[C@H](F)C4)nc3c(F)c(-c4cccc5cccc(Cl)c45)ncc23)CCN1C(=O)/C(F)=C/c1ccnc(C2CC2)n1 [Compound 6]	< 10 nM
N#CC[C@H]1CN(c2nc(OC[C@@]34CCCN3C[C@H](F)C4)nc3c(F)c(-c4cccc5ccc(F)c(Cl)c45)ncc23)CCN1C(=O)/C(F)=C\c1ccnc(C2CC2)n1 [Compound 7]	10 to 100 nM
N#CC[C@H]1CN(c2nc(OC[C@@]34CCCN3C[C@H](F)C4)nc3c(F)c(-c4cccc5ccc(F)c(F)c45)ncc23)CCN1C(=O)/C(F)=C\c1ccnc(C2CC2)n1 [Compound 8]	10 to 100 nM
CCc1c(F)ccc2cccc(-c3ncc4c(N5CCN(C(=O)/C(F)=C/c6ccnc(C)n6)[C@@H](CC#N)C5)nc(OC[C@@]56CCCN5C[C@H](F)C6)nc4c3F)c12 [Compound 9, 2-((S)-4-(7-(8-ethyl-7-fluoronaphthalen-1-yl)-8-fluoro-2-(((2R,7aS)-2-fluorotetrahydro-1H-pyrrolizin-7a(5H)-yl)methoxy)pyrido[4,3-d]pyrimidin-4-yl)-1-((Z)-2-fluoro-3-(2-methylpyrimidin-4-yl)acryloyl)piperazin-2-yl)acetonitrile]	< 10 nM
CCc1c(F)ccc2cccc(-c3ncc4c(N5CCN(C(=O)/C(F)=C\c6ccnc(C7CC7)n6)[C@@H](CC#N)C5)nc(OC[C@@]56CCCN5C[C@H](F)C6)nc4c3F)c12 [Compound 10]	100 to 500 nM
Cc1nccc(/C=C(\F)C(=O)N2CCN(c3nc(OC[C@@]45CCCN4C[C@H](F)C5)nc4c(F)c(-c5cccc6ccc(F)c(F)c56)ncc34)C[C@@H]2CC#N)n1 [Compound 11, 2-((S)-4-(7-(7,8-difluoronaphthalen-1-yl)-8-fluoro-2-(((2R,7aS)-2-fluorotetrahydro-1H-pyrrolizin-7a(5H)-yl)methoxy)pyrido[4,3-d]pyrimidin-4-yl)-1-((Z)-2-fluoro-3-(2-methylpyrimidin-4-yl)acryloyl)piperazin-2-yl)acetonitrile]	< 10 nM
CN1CCC1/C=C(/F)C(=O)N1CCN(c2nc(OC[C@@]34CCCN3C[C@H](F)C4)nc3c(F)c(-c4cccc5ccc(F)c(F)c45)ncc23)C[C@@H]1CC#N (some centres unmarked) [Compound 12]	≥ 500 nM
CN1CC[C@@H]1/C=C(\F)C(=O)N1CC[C@@H](N(C)c2nc(OC[C@@]34CCCN3C[C@H](F)C4)nc3c(F)c(-c4cccc5ccc(F)c(F)c45)ncc23)C1 [Compound 13]	100 to 500 nM
CN1CC[C@@H]1/C=C(/F)C(=O)N1CC[C@@H](N(C)c2nc(OC[C@@]34CCCN3C[C@H](F)C4)nc3c(F)c(-c4cccc5ccc(F)c(F)c45)ncc23)C1 [Compound 14]	10 to 100 nM
CCc1c(F)ccc2cccc(-c3ncc4c(N5CCN(C(=O)/C(F)=C/c6cc(C)nc(C)n6)[C@@H](CC#N)C5)nc(OC[C@@]56CCCN5C[C@H](F)C6)nc4c3F)c12 [Compound 15]	< 10 nM
CN1CCC1/C=C(\F)C(=O)N1CCN(c2nc(OC[C@@]34CCCN3C[C@H](F)C4)nc3c(F)c(-c4cccc5ccc(F)c(Cl)c45)ncc23)C[C@@H]1CC#N (stereo partly drawn) [Compound 16, 2-((2S)-4-(7-(8-chloro-7-fluoronaphthalen-1-yl)-8-fluoro-2-(((2R,7aS)-2-fluorotetrahydro-1H-pyrrolizin-7a(5H)-yl)methoxy)pyrido[4,3-d]pyrimidin-4-yl)-1-((Z)-2-fluoro-3-(1-methylazetidin-2-yl)acryloyl)piperazin-2-yl)acetonitrile]	100 to 500 nM
CN1CCC1/C=C(/F)C(=O)N1CCN(c2nc(OC[C@@]34CCCN3C[C@H](F)C4)nc3c(F)c(-c4cccc5ccc(F)c(Cl)c45)ncc23)C[C@@H]1CC#N (some centres unmarked) [Compound 17]	≥ 500 nM
Cc1nccc(/C=C(\F)C(=O)N2CCN(c3nc(OC[C@@]45CCCN4C[C@H](F)C5)nc4c(F)c(-c5cccc6cccc(Cl)c56)ncc34)C[C@@H]2CC#N)n1 [Compound 18]	< 10 nM
Cc1cc(/C=C(\F)C(=O)N2CCN(c3nc(OC[C@@]45CCCN4C[C@H](F)C5)nc4c(F)c(-c5cccc6cccc(F)c56)ncc34)C[C@@H]2CC#N)nc(C)n1 [Compound 19]	< 10 nM
Cc1nccc(/C=C(\F)C(=O)N2CCN(c3nc(OC[C@@]45CCCN4C[C@H](F)C5)nc4c(F)c(-c5cccc(Cl)c5C5CC5)ncc34)C[C@@H]2CC#N)n1 [Compound 20]	< 10 nM

Next, values leading:

IC50	Structure (SMILES)
≥ 500 nM	N#CC[C@H]1CN(c2nc(OC[C@@]34CCCN3C[C@H](F)C4)nc3c(F)c(-c4cccc5cccc(Cl)c45)ncc23)CCN1C(=O)/C(F)=C/CN1[C@@H]2CC[C@H]1COC2 [Compound 21]
< 10 nM	Cc1nccc(/C=C(\F)C(=O)N2CCN(c3nc(OC[C@@]45CCCN4C[C@H](F)C5)nc4c(F)c(-c5cccc6ccc(F)c(C)c56)ncc34)C[C@@H]2CC#N)n1 [Compound 22]
10 to 100 nM	Cc1nccc(/C=C(\F)C(=O)N2CCN(c3nc(OC[C@@]45CCCN4C[C@H](F)C5)nc4c(F)c(-c5cccc6c(C)c(F)ccc56)ncc34)C[C@@H]2CC#N)n1 [Compound 23]
100 to 500 nM	N#CC[C@H]1CN(c2nc(OC[C@@]34CCCN3C[C@H](F)C4)nc3c(F)c(-c4cccc5ccc(F)c(F)c45)ncc23)CCN1C(=O)/C(F)=C/CN1CCOCC1 [Compound 24]
< 10 nM	Cc1cc(/C=C(\F)C(=O)N2CCN(c3nc(OC[C@@]45CCCN4C[C@H](F)C5)nc4c(F)c(-c5cccc6cccc(Cl)c56)ncc34)C[C@@H]2CC#N)nc(C)n1 [Compound 26]
< 10 nM	Cc1cc(/C=C(\F)C(=O)N2CCN(c3nc(OC[C@@]45CCCN4C[C@H](F)C5)nc4c(F)c(-c5cccc6ccc(F)c(F)c56)ncc34)C[C@@H]2CC#N)nc(C)n1 [Compound 27]
≥ 500 nM	N#CC[C@H]1CN(c2nc(OC[C@@]34CCCN3C[C@H](F)C4)nc3c(F)c(-c4cccc5cccc(F)c45)ncc23)CCN1C(=O)/C(F)=C/CN1[C@@H]2CC[C@H]1COC2 [Compound 28]
< 10 nM	C#Cc1c(F)ccc2cccc(-c3ncc4c(N5CCN(C(=O)/C(F)=C/c6cc(C)nc(C)n6)[C@@H](CC#N)C5)nc(OC[C@@]56CCCN5C[C@H](F)C6)nc4c3F)c12 [Compound 29, 2-((S)-1-((Z)-3-(2,6-dimethylpyrimidin-4-yl)-2-fluoroacryloyl)-4-(7-(8-ethynyl-7-fluoronaphthalen-1-yl)-8-fluoro-2-(((2R,7aS)-2-fluorotetrahydro-1H-pyrrolizin-7a(5H)-yl)methoxy)pyrido[4,3-d]pyrimidin-4-yl)piperazin-2-yl)acetonitrile]
< 10 nM	C#Cc1c(F)ccc2cccc(-c3ncc4c(N5CCN(C(=O)/C(F)=C/c6ccnc(C)n6)[C@@H](CC#N)C5)nc(OC[C@@]56CCCN5C[C@H](F)C6)nc4c3F)c12 [Compound 30]
≥ 500 nM	N#CC[C@H]1CN(c2nc(OC[C@@]34CCCN3C[C@H](F)C4)nc3c(F)c(-c4cccc5ccc(F)c(Cl)c45)ncc23)CCN1C(=O)/C(F)=C/CN1[C@@H]2CC[C@H]1COC2 [Compound 31]
< 10 nM	Cc1cc(/C=C(\F)C(=O)N2CCN(c3nc(OC[C@@]45CCCN4C[C@H](F)C5)nc4c(F)c(-c5cccc(Cl)c5C5CC5)ncc34)C[C@@H]2CC#N)nc(C)n1 [Compound 32, 2-((S)-4-(7-(3-chloro-2-cyclopropylphenyl)-8-fluoro-2-(((2R,7aS)-2-fluorotetrahydro-1H-pyrrolizin-7a(5H)-yl)methoxy)pyrido[4,3-d]pyrimidin-4-yl)-1-((Z)-3-(2,6-dimethylpyrimidin-4-yl)-2-fluoroacryloyl)piperazin-2-yl)acetonitrile]
< 10 nM	Cc1nccc(/C=C(\F)C(=O)N2CCN(c3nc(OC[C@@]45CCCN4C[C@H](F)C5)nc4c(F)c(-c5cccc6cccc(F)c56)ncc34)C[C@@H]2CC#N)n1 [Compound 33]
